The record followed here is patent US20240093251A1, “Reactivity of Nitrile Hydratase by Aldehyde” (Mitsubishi Chemical Corporation, priority 2021, published 2024).

Common to all, as to type: biochemical
For assay [1], the system named is nitrile hydratase. Kind of assay: Test Example 1: effect of compounds on the amide formation reaction with Rhodococcus rhodochrous J-1 bacterial cells. The settings on record: hydrocyanic acid 2.0 ppm in acrylonitrile, 25° C. On the procedure:
(§1) Acrylonitrile was prepared so as to have a hydrocyanic acid concentration of 2.0 ppm.
A diluted solution containing an aldehyde compound diluted with a phosphate buffer (pH7.0) so as to obtain a concentration of 5 ppm or 10 ppm in the reaction solution, was added, and finally the phosphate buffer (pH7.0) was added to obtain a total amount of 6.2 g. The obtained solution was stirred while the temperature thereof was controlled at 25° C. To this solution, acrylonitrile (4.8 mL (acrylamide 50% equivalent, 38 wt %)) was added to initiate a reaction. At the time points of 3.5, 4.5, 5.0, and 6.0 hours later, the reaction solution was collected and the concentration of acrylonitrile was measured by gas chromatography (column: PoraPack-PS (manufactured by Waters Corporation), 1 m, 210° C., carrier gas: helium, detector: FID).
(§2) The concentration ratio can be obtained in accordance with the following expression:
(§3) Concentration ratio [%]=(acrylonitrile concentration of the case where aldehyde was added/the case where aldehyde was not added)×100

For assay [2], the system named is nitrile hydratase derived from Pseudonocardia thermophila JCM3095 strain. Kind of assay: Example 6: amide compound formation reaction by transformant (ATCC12674/pSJ-N02A). The settings on record: propionaldehyde 7 ppm in reaction solution, propionaldehyde/cyan 10.7 mol/mol, hydrocyanic acid 2.0 ppm in acrylonitrile, 25° C. Here is the method: (§4) The transformant (ATCC12674/pSJ-N02A) obtained in the above step was inoculated in MYK medium (50 μg/ml kanamycin) and subjected to shaking culture performed at 30° C. for two days. The cultured transformant (1%) was inoculated in GGPK medium (1.5% glucose, 1% monosodium glutamate, 0.1% yeast extract, 0.05% K2HPO4, 0.05% KH2PO4, 0.05% […], 1% CoCl2, 0.1% urea, 50 μg/ml kanamycin, pH7.2). Shaking culture was carried out at 30° C. for three days and bacterial cells were centrifugally collected. Thereafter, the bacterial cells were washed with a 100 mM phosphate buffer (pH7.0) and a bacterial suspension was prepared.
According to Example 1, the effect of propionaldehyde on amide compound formation reaction by transformant (ATCC12674/pSJ-N02A) was evaluated.
Acrylonitrile was prepared so as to have a hydrocyanic acid concentration of 2.0 ppm. […]

The subject of assay [3] is nitrile hydratase derived from Rhodococcus rhodochrous M8 strain. Kind of assay: Example 5: amide compound formation reaction by M8 strain-derived transformant (ATCC12674/pSJ-N01A). The settings on record: hydrocyanic acid 2.0 ppm in acrylonitrile, 25° C. Here is the method:
as §4, with “(ATCC12674/pSJ-N01A)” for “(ATCC12674/pSJ-N02A)”
According to Example 1, the effect of propionaldehyde on amide compound formation reaction by M8 strain-derived transformant (ATCC12674/pSJ-N01A) was evaluated.
as §1
To a glass case (internal volume: 13.5 ml) with a lid, 1.00 g of a diluted bacterial-cell solution, which was prepared by diluting bacterial cells as mentioned above with the phosphate buffer (pH7.0) such that the initial amount of the bacterial cells in a reaction solution became 5.6 mg; and a diluted solution, which was prepared by diluting each aldehyde compound with a phosphate buffer (pH7.0) so as to obtain a concentration thereof of 10 ppm, 25 ppm or 50 ppm in a reaction solution, were added; and finally, a phosphate buffer (pH7.0) was added up to a total amount of 9.0 g. The solution obtained was stirred while the temperature thereof was controlled at 25° C. To this solution, acrylonitrile (1.0 g) was added to initiate a reaction. Six hours later, the reaction solution was collected and the concentration of acrylonitrile was measured by gas chromatography (column: PoraPack-PS (manufactured by Waters Corporation), 1 m, 210° C., carrier gas: helium, detector: FID).
as §2, §3

Assay [4] has as its system nitrile hydratase. As to the kind of experiment: Amide formation reaction from acrylonitrile with Rhodococcus rhodochrous J-1 bacterial cells, acetaldehyde in acrylonitrile (Examples 1-4). The settings on record: for Concentration ratio (4 hr) (acrylonitrile concentration with aldehyde / without aldehyde x100): 20° C. Here is the method: Rhodococcus rhodochrous J-1 strain (FERMBP-1478) having nitrile hydratase activity was aerobically cultured in a medium (pH7.0) containing glucose (2.0%), urea (1.0%), peptone (0.5%), yeast extract (0.3%) and cobalt chloride (0.05%) at 30° C. The medium was washed with a 50 mM phosphate buffer (pH7.0) to obtain a bacterial suspension (3% on a dry-cell basis).
A cyan 1000-ppm standard solution (manufactured by Hayashi Pure Chemical Ind., Ltd.) was added to acrylonitrile for industrial use (manufactured by Mitsubishi Chemical Corporation) such that the hydrocyanic acid concentration became 2.1 ppm on a weight basis. […]
To a glass case (internal volume: 13.5 ml) with a lid, 3.15 g of a phosphate buffer (pH7.0), and 3.15 g of a diluted bacterial cell solution, which was prepared by diluting bacterial cells as mentioned above with the phosphate buffer (pH7.0) such that initial activity thereof in a reaction solution became 1460 U, were added. The mixture was stirred while controlling the temperature at 20° C. […] Four hours later, the reaction solution was collected and the concentration of acrylonitrile was measured by gas chromatography (column: PoraPack-PS (manufactured by Waters Corporation), 1 m, 210° C., carrier gas: helium, detector: FID).
as §2, §3

[5] abbreviates: 5 ppm addition in reaction solution.
[6] abbreviates: 10 ppm addition in reaction solution.

Where a name gives a salt, the structure may show the parent alone.

Turning to `CCCCCCCCCC=O` [No. 9, decanal], in the assay with nitrile hydratase [1] (setting [5]), the “Concentration Ratio (3.5 hr)” value came out at 96.1% and the “Concentration Ratio (6 hr)” value is given as 67.0%.

Regarding `O=CC=Cc1ccccc1` [No. 16, cinnamaldehyde], in the assay with nitrile hydratase [1] (setting [5]), the “Concentration Ratio (3.5 hr)” value was found to be 97.0% and the “Concentration Ratio (6 hr)” value came out at 102.6%. Also, in the assay on nitrile hydratase [1] (setting [6]), the “Concentration Ratio (3.5 hr)” value amounted to 99.2% and the “Concentration Ratio (6 hr)” value is listed as 87.1%.

On to `CCCCCCCC=O` [No. 7, octanal], for which, in the assay with nitrile hydratase [1] (setting [5]), the “Concentration Ratio (3.5 hr)” value is recorded as 106.4% and the “Concentration Ratio (6 hr)” value amounted to 117.5%. For the same molecule, in the assay on nitrile hydratase [1] (setting [6]), the “Concentration Ratio (3.5 hr)” value amounted to 72.9% and the “Concentration Ratio (6 hr)” value was 11.6%.

As to `COc1cc(C=O)ccc1O` [No. 18, vanillin], in the assay with nitrile hydratase [1] (setting [5]), the “Concentration Ratio (3.5 hr)” value is 92.9% and the “Concentration Ratio (6 hr)” value amounted to 71.7%.

With `CCCCCC=O` [No. 5, hexanal], in the assay with nitrile hydratase [1] (setting [5]), the “Concentration Ratio (3.5 hr)” value worked out at 83.9% and the “Concentration Ratio (6 hr)” value is reported as 17.8%.

Take `O=Cc1ccccc1` [No. 15, benzaldehyde]: in the assay on nitrile hydratase [1] (setting [5]), the “Concentration Ratio (3.5 hr)” value was 92.0% and the “Concentration Ratio (6 hr)” value is 66.2%.

Regarding `CC1NC(C)NC(C)N1` (stereo not shown) [No. 19, acetaldehyde ammonia], in the assay with nitrile hydratase [1] (setting [5]), the “Concentration Ratio (3.5 hr)” value amounted to 30.0% and the “Concentration Ratio (6 hr)” value amounted to 3.3%.

For the molecule `CCCC=O` [No. 4, butyraldehyde], in the assay on nitrile hydratase [1] (setting [5]), the “Concentration Ratio (3.5 hr)” value turned out to be 3.1% and the “Concentration Ratio (6 hr)” value is reported as 2.7%.

As to `OC[C@@H](O)[C@@H](O)CO` [No. 12, meso-erythritol, reference compound], in the assay with nitrile hydratase [1] (setting [5]), the “Concentration Ratio (3.5 hr)” value is 103.3% and the “Concentration Ratio (6 hr)” value is 118.2%. In the assay on nitrile hydratase [1] (setting [6]), the “Concentration Ratio (3.5 hr)” value is 97.8% and the “Concentration Ratio (6 hr)” value was 97.3%.

Turning to `CCCCCCC=O` [No. 6, heptanal], in the assay on nitrile hydratase [1] (setting [5]), the “Concentration Ratio (3.5 hr)” value is 62.1% and the “Concentration Ratio (6 hr)” value is 17.6%.

For the molecule `O=CO` [No. 10, formic acid, reference compound], the “Concentration Ratio (3.5 hr)” value with nitrile hydratase [1] (setting [5]) is 99.6%; in the assay with nitrile hydratase [1] (setting [6]), 95.1%. For the same molecule, the “Concentration Ratio (6 hr)” value in the assay with nitrile hydratase [1] (setting [5]) was found to be 88.9%; with nitrile hydratase [1] (setting [6]), 94.9%.

In the case of `C1N2CN3CN1CN(C2)C3` [No. 20, hexamethylenetetramine], in the assay on nitrile hydratase [1] (setting [5]), the “Concentration Ratio (3.5 hr)” value stood at 0.3% and the “Concentration Ratio (6 hr)” value is 2.4%.

For the molecule `CCC=O` [No. 3, propionaldehyde], the “Concentration Ratio (6 hr)” value is reported as 33.3% in assay [2]; 82.7% in assay [3] (propionaldehyde 10 ppm in reaction solution, propionaldehyde/cyan 22.9 mol/mol); 70.4% in assay [3] (propionaldehyde 25 ppm in reaction solution, propionaldehyde/cyan 57.1 mol/mol); 60.0% in assay [3] (propionaldehyde 50 ppm in reaction solution, propionaldehyde/cyan 114.3 mol/mol); 1.4% in the assay with nitrile hydratase [1] (setting [5]). In the assay with nitrile hydratase [1] (setting [5]), the “Concentration Ratio (3.5 hr)” value is on record as 2.2%.

With paraformaldehyde [No. 14], in the assay on nitrile hydratase [1] (setting [5]), the “Concentration Ratio (3.5 hr)” value worked out at 1.1% and the “Concentration Ratio (6 hr)” value stood at 1.1%.

On to `C=C(C)C1CC=C(C=O)CC1` (stereo not shown) [No. 17, perillaldehyde], for which, in the assay on nitrile hydratase [1] (setting [5]), the “Concentration Ratio (3.5 hr)” value is reported as 82.8% and the “Concentration Ratio (6 hr)” value came to 59.6%.

With `O=CC=O` [No. 11, dialdehyde oxalate], in the assay on nitrile hydratase [1] (setting [5]), the “Concentration Ratio (3.5 hr)” value was 33.4% and the “Concentration Ratio (6 hr)” value is 12.2%.

As to `CC=O` [No. 2, acetaldehyde], the “Concentration ratio (4 hr) (acrylonitrile concentration with aldehyde / without aldehyde x100)” value in the assay with nitrile hydratase [4] (Example 1: hydrocyanic acid 2.1 ppm, acetaldehyde 10 ppm in acrylonitrile, acetaldehyde/cyan 2.9 mol/mol) is given as 38.8%; in the assay on nitrile hydratase [4] (Example 2: hydrocyanic acid 2.1 ppm, acetaldehyde 6 ppm in acrylonitrile, acetaldehyde/cyan 1.8 mol/mol) it was 76.1%; in the assay with nitrile hydratase [4] (Example 3: hydrocyanic acid 2.1 ppm, acetaldehyde 3 ppm in acrylonitrile, acetaldehyde/cyan 0.9 mol/mol) it was 92.5%; in the assay with nitrile hydratase [4] (Example 4: hydrocyanic acid 1.1 ppm, acetaldehyde 10 ppm in acrylonitrile, acetaldehyde/cyan 5.6 mol/mol), 9.8%. Moreover, in the assay on nitrile hydratase [4] (compared to Comparative Example without acetaldehyde, hydrocyanic acid 2.1 ppm or 1.1 ppm), the “rate of a reaction that converts acrylonitrile to an amide compound” value is listed as “high”. Further, the “Concentration Ratio (3.5 hr)” value with nitrile hydratase [1] (setting [5]) was determined as 7.5%. Besides, the “Concentration Ratio (6 hr)” value in the assay with nitrile hydratase [1] (setting [5]) amounted to 9.2%.

`CCCCCCCCC=O` [No. 8, nonanal]: in the assay with nitrile hydratase [1] (setting [5]), the “Concentration Ratio (3.5 hr)” value turned out to be 97.1% and the “Concentration Ratio (6 hr)” value worked out at 81.4%. Besides, in the assay with nitrile hydratase [1] (setting [6]), the “Concentration Ratio (3.5 hr)” value worked out at 80.1% and the “Concentration Ratio (6 hr)” value is recorded as 35.0%.
